Test [1] relates to FTH1. As to the kind of experiment: FTH1 gene expression in human skeletal muscle cells (HSkMC) by qRT-PCR. It is filed as cell-based. The settings on record: for FTH1 Fold Change at 0.625 μM / FTH1 Fold Change at 1.25 μM / FTH1 Fold Change at 2.5 μM / FTH1 Fold Change at 5 μM / FTH1 Fold Change at 10 μM: average of triplicate (SD ≤ 0.3); for FTH1 Fold Change, Average / FTH1 Fold Change (individual runs): SPH 100 μM or synthetic oligopeptide 10 μM, about 12 hours; for FTH1 Fold Change (individual runs): triplicate runs. As for the experimental part: A cell line derived from human skeletal muscle was selected to assess the effect of SPH and oligopeptides on gene expression. HSkMC (PCS-950-010) obtained from ATCC (Manassas, VA) were propagated in Mesenchymal Stem Cell Basal Medium (ATCC) reduced serum medium supplemented with Primary Skeletal Cell Muscle Growth Kit (ATCC) that contains L-Glutamine (10 mM), Dexamethasone ([…]), rh epidermal growth factor (5 ng/ml), rh FGF-b (5 ng/ml), rh Insulin (25 μg/mL), and fetal bovine serum (4%), on 100 mm cell culture dishes. For this assay, the HSkMC cells were seeded in 24 well plates at a cell density of 1×10^4 cells/cm^2 and maintained at 37° C. in a humidified 5% CO2 atmosphere. […]
Total RNA was extracted using the UPzol reagent for the cell pellets, followed by a DNAse treatment (DNAse TURBO), using the manufacturer's protocols. Complementary DNA (cDNA) was synthesized with the High Capacity cDNA Reverse Transcription Kit (Applied Biosystems) using random hexamers. Gene expression levels were measured by qRT-PCR.
1 μl of cDNA corresponding to 50 ng of reverse transcribed RNA was amplified by Qpcr (QuantStudio™ 6 Flex Real-Time PCR System), using the TaqMan™ Universal PCR Master Mix (Catalog No. 4304437) and a TaqMan™ assay (Roche Molecular Systems, Inc., Pleasanton, CA).
FTH1 gene expression was estimated relative to expression of the housekeeping gene, beta-actin (ACTB), following the standard formula: […]
2-ΔCt. TaqMan™ probe IDs used were: (i) FTH1, Hs01694011_s1; and (ii) ACTB, Hs01060665_g1. All experiments were run in triplicate.

Test [2] deals with H-Ferritin. Description: H-Ferritin gene expression in hemin-treated astrocytes by qRT-PCR. It is filed as cell-based, human. The settings on record: oligopeptide 10 μM; for H-Ferritin Fold Change, Average / H-Ferritin Fold Change (individual runs): SPH 160 μM, collagen control 160 μM, after 6 hr hemin; for H-Ferritin Fold Change (individual runs): GAPDH housekeeping, normalized to control wells. As for the experimental part: (§1) Immortalized human astrocytes (P10251-IM) were obtained from Innoprot, Spain and prepared under conditions recommended by the supplier. At 90% confluency, the P10251-IM cells were rinsed with 8 ml of DPBS and 2 ml of the T/E Solution (prepared as per Innoprot procedure), then added into an […] and gently rocked so that the P10251-IM cells would be completely covered. The flask was subsequently incubated at 37° C. for 2 minutes. Then 5 ml of fetal bovine serum (FBS) and the T/E solution from the flask were added into a 50 ml conical centrifuge tube. The flask was incubated for an additional 2 minutes, and the P10251-IM cells dislodged from the surface by gentle tapping. The P10251-IM cells were then transferred to the 50 ml conical centrifuge tube with 5 ml of TNS solution. The tube was centrifuged at 1000 rpm for 5 minutes. Then the P10251-IM cells were resuspended in the culture medium, counted, and plated in a poly-L-lysine-coated culture plate at 1×10^4 cell density. Cells were tested after they were incubated for 21 days in vitro.
(§2) Confluent P10251-IM cell cultures were washed and then pre-treated with medium alone, or medium supplemented with SPH (160 μM) or an oligopeptide (10 μM) for 24 hr at 37° C. Commercial collagen peptide (Vital Protein) at 160 μM concentration and sterile water were used as negative controls. The P10251-IM cells were subsequently treated with 30 μM hemin in serum-free medium consisting of MEM with 10 mM glucose (MEM10) for 6 hrs.
(§3) L-Ferritin and H-Ferritin gene expression were then quantified. Briefly, after 6 hr incubation with hemin, the astrocytes were lysed, and RNA was extracted using the Qiagen lipid mini kit. The expression of both genes (L-ferritin and H-ferritin) involved in iron homeostasis was assessed by qRT-PCR. Fold changes were calculated using the ΔCt method, using GAPDH as the housekeeping gene. Fold changes were normalized to expression levels in control wells. Experiments were run in triplicate.
(§4) The primers used for amplification of cDNA were: […]
On the technique in general: Real-time PCR tracks product formation cycle by cycle.

Test [3] relates to L-Ferritin. As to the kind of experiment: L-Ferritin gene expression in hemin-treated astrocytes by qRT-PCR. It counts as cell-based, human. Particulars: SPH 160 μM, oligopeptide 10 μM, collagen control 160 μM, after 6 hr hemin; for L-Ferritin Fold Change (individual runs): GAPDH housekeeping, normalized to control wells. As for the experimental part: as §1, §2, §3, §4
Test [4] has as its system H-Ferritin. Description: H-Ferritin protein levels in mouse bone marrow-derived macrophages (ELISA). It counts as cell-based. Particulars: murine macrophages; for H-Ferritin Protein Levels, Fe-Normal / H-Ferritin Protein Levels, DFO (−Fe) / H-Ferritin Protein Levels, Fe-NTA (+Fe): SPH 160 μM or oligopeptide 10 μM; for H-Ferritin Protein Levels, Fe-Normal: normal iron, average of triplicate; for H-Ferritin Protein Levels, DFO (−Fe): with DFO 100 μM 16 h; for H-Ferritin Protein Levels, Fe-NTA (+Fe): with Fe-NTA 8 h; for intracellular H-Ferritin protein levels: normal and iron-depleted conditions. As for the experimental part: Cell Cultures. MBMMs (C57BL/6 genetic background) were obtained from CellBiologics.net and prepared under the conditions recommended by the supplier. Isolated MBMMs were seeded onto 10 cm diameter Petri dishes and grown in RPMI-GlutaMAX™ medium (Invitrogen) supplemented with 10% heat-inactivated FCS (Gibco), 10% L-cell-conditioned medium (source of colony-stimulating factor 1), 2 mM L-glutamine, 50 U/mL penicillin, and […] streptomycin. At 4 days after seeding, the adherent MBMMs were rinsed twice with Hanks balance salt solution (HBSS), and the medium was renewed for 7 days, at which point the MBMMs had completely differentiated into macrophages that were ready for downstream experimental applications.
Cell Treatments. SPH (average molecular weight of about 1100 Daltons) and oligopeptides were dissolved in sterile water to obtain […] stock solutions. The SPH and oligopeptides were further diluted in cell culture media to reach final concentrations of 160 μM SPH and 10 μM oligopeptide per Petri dish.
Murine macrophages were incubated with SPH or an oligopeptide in the presence or absence of an iron-nitrilotriacetate solution (Fe-NTA; FeCl3 (100 μM)-NTA (400 μM)) for 8 h at 37° C. to increase cellular iron concentration. Murine macrophages were also incubated with SPH or an oligopeptide in the presence or absence of desferrioxamine mesylate (DFO; 100 μM) for 16 h at 37° C. to decrease cellular iron concentration. Commercial collagen peptide (Vital Protein) at a 10 μM concentration and sterile water were used as negative controls.
Quantification of H-Ferritin. Macrophages were washed with cold saline and lysed with 400 μl of a solution containing 50 mM HEPES (Gibco), 1% IGEPAL C-630 (Sigma), and 1% proteases inhibitor cocktail P840 (Sigma). H-Ferritin concentrations in the lysates were determined by ELISA using polyclonal antibodies raised against mouse recombinant H-ferritin subunits and calibrated with the corresponding recombinant homopolymers. The specificity and the absence of cross-reactivity of the antibodies are documented. The results were expressed as (ng ferritin) per (mg total protein) in the cell lysate and shown as an average of triplicate readings in Table 8-1. Total protein content was measured using the BCA protein assay kit (Pierce).
A general note: ELISA stands for enzyme-linked immunosorbent assay.

Data on three compounds can be found in patent publication US20250101061A1, “UPREGULATION OF FERRITIN HEAVY CHAIN 1 EXPRESSION” (HBC Immunology Inc., priority 2022, published 2025).

Values joined by “and” are separate entries in the source; they are usually repeats but may differ in a detail not shown here. Equal values may be shown once. Peptide text beside a SMILES is read from it.

`CC(C)C[C@H](NC(=O)[C@H](CCC(=O)O)NC(=O)CNC(=O)[C@H](CO)NC(=O)[C@H](CCC(=O)O)NC(=O)[C@H](CCC(=O)O)NC(=O)[C@@H](N)CCCNC(=N)N)C(=O)O` [FT-008, REESGEL] (H-REESGEL-OH): in test [1], the “FTH1 Fold Change at 0.625 μM” value was found to be 1.1 fold, the “FTH1 Fold Change at 1.25 μM” value is 1.0 fold, the “FTH1 Fold Change at 2.5 μM” value amounted to 2.1 fold and the “FTH1 Fold Change at 5 μM” value is given as 2.7 fold. Further, in test [1], the “FTH1 Fold Change at 10 μM” value was 3.8 fold; the “FTH1 Fold Change, Average” value amounted to 3.6 fold; the “FTH1 Fold Change (individual runs)” value is 3.9 fold and 3.3 fold and 3.7 fold. Moreover, in test [2], the “H-Ferritin Fold Change, Average” value amounted to 4.2 fold; the “H-Ferritin Fold Change (individual runs)” value is 4.1 fold (2×) and 4.4 fold; the “increases in H-Ferritin gene expression” value was 4.0 fold. For the same compound, in test [3], the “L-Ferritin Fold Change, Average” value was 1.6 fold; the “L-Ferritin Fold Change (individual runs)” value is 1.8 fold and 1.6 fold and 1.5 fold. In test [4], the “H-Ferritin Protein Levels, Fe-Normal” value was 158 ng/mg total protein; the “H-Ferritin Protein Levels, DFO (−Fe)” value amounted to 122 ng/mg total protein; the “H-Ferritin Protein Levels, Fe-NTA (+Fe)” value stood at 200 ng/mg total protein; the “intracellular H-Ferritin protein levels” value is recorded as “substantial increases”.
Take `N=C(N)NCCC[C@H](NC(=O)[C@@H]1CCCN1)C(=O)N[C@@H](CCC(=O)O)C(=O)N[C@@H](CCC(=O)O)C(=O)N[C@@H](CO)C(=O)N[C@@H](CC(=O)O)C(=O)N[C@@H](CCCCN)C(=O)N1CCC[C@H]1C(=O)O` [FT-007, PREESDKP] (H-PREESDKP-OH): in test [1], the “FTH1 Fold Change at 0.625 μM” value was determined as 1.1 fold, the “FTH1 Fold Change at 1.25 μM” value was determined as 1.0 fold, the “FTH1 Fold Change at 2.5 μM” value is recorded as 1.1 fold and the “FTH1 Fold Change at 5 μM” value is recorded as 1.9 fold. Also, in test [1], the “FTH1 Fold Change at 10 μM” value is on record as 2.8 fold; the “FTH1 Fold Change, Average” value was determined as 2.6 fold; the “FTH1 Fold Change (individual runs)” value is 2.5 fold and 2.6 fold (2×). Moreover, in test [2], the “H-Ferritin Fold Change, Average” value is 3.3 fold; the “H-Ferritin Fold Change (individual runs)” value was 3.5 fold and 3.2 fold and 3.3 fold; the “increases in H-Ferritin gene expression” value is 3.3 fold. Besides, in test [3], the “L-Ferritin Fold Change, Average” value is on record as 1.1 fold; the “L-Ferritin Fold Change (individual runs)” value is 1.1 fold and 1.2 fold and 1.0 fold. For the same compound, in test [4], the “H-Ferritin Protein Levels, Fe-Normal” value was determined as 142 ng/mg total protein; the “H-Ferritin Protein Levels, DFO (−Fe)” value is on record as 111 ng/mg total protein; the “H-Ferritin Protein Levels, Fe-NTA (+Fe)” value turned out to be 197 ng/mg total protein; the “intracellular H-Ferritin protein levels” value was “substantial increases”.
Take `CSCC[C@H](NC(=O)[C@@H]1CCCN1C(=O)[C@H](CCCCN)NC(=O)[C@H](CC(=O)O)NC(=O)[C@H](CO)NC(=O)[C@H](CCC(=O)O)NC(=O)[C@H](CCC(=O)O)NC(=O)[C@@H](N)CCCNC(=N)N)C(=O)N[C@@H](Cc1ccc(O)cc1)C(=O)O` [FT-006, REESDKPMY] (H-REESDKPMY-OH): in test [1], the “FTH1 Fold Change at 0.625 μM” value is on record as 1.3 fold, the “FTH1 Fold Change at 1.25 μM” value turned out to be 2.2 fold, the “FTH1 Fold Change at 2.5 μM” value is reported as 3.5 fold and the “FTH1 Fold Change at 5 μM” value is reported as 4.2 fold. Moreover, in test [1], the “FTH1 Fold Change at 10 μM” value is 4.9 fold; the “FTH1 Fold Change, Average” value was 4.7 fold; the “FTH1 Fold Change (individual runs)” value is 4.5 fold and 4.7 fold and 4.9 fold. In test [2], the “H-Ferritin Fold Change, Average” value is recorded as 3.0 fold; the “H-Ferritin Fold Change (individual runs)” value was 2.9 fold (2×) and 3.1 fold; the “increases in H-Ferritin gene expression” value is on record as 3.0 fold. For the same compound, in test [3], the “L-Ferritin Fold Change, Average” value came out at 1.3 fold and the “L-Ferritin Fold Change (individual runs)” value worked out at 1.3 fold. Besides, in test [4], the “H-Ferritin Protein Levels, Fe-Normal” value came out at 174 ng/mg total protein; the “H-Ferritin Protein Levels, DFO (−Fe)” value is on record as 105 ng/mg total protein; the “H-Ferritin Protein Levels, Fe-NTA (+Fe)” value was 257 ng/mg total protein; the “intracellular H-Ferritin protein levels” value is “substantial increases”.
